# Several values for one entry are separate records, joined by “and”; a condition that tells them apart may be missing. Equal entries are not always repeated.
# Legend:
# [1] = Single dose oral pharmacokinetics study in male Sprague Dawley rats; type: in vivo, Rat; settings: for Plasma Concentration of Menaquinone-7, Mean (comparative table): G1: Menaquinone-7 oral; for Plasma Concentration of Menaquinone-7, Mean / Plasma Concentration of Menaquinone-7, individual animals: fasted
# Method: Male Sprague Dawley rats aged 8-10 weeks and weighing around 202-223 grams are used for in vivo testing. Animals are fasted overnight with free access to water. Animals are split into 4 groups G1 to G4, each group containing 3 rats. To determine the bioavailability, the test items are separately dissolved in corn oil to obtain homogenous formulations. Animals are administered with test items by oral gavage, animals of G1 received 1088 μg, G2 received 1073 μg, G3 and G4 received 1000 μg per kg body weight dose of compound Ia.1, m=9, n=7 (G1), of compound Ia.1, m=9, n=9 (G2), menaquinone-7 (G3) and menaquinone-9 (G4) respectively. The doses of Ia.1 (n=7) (G1), of Ia.1 (n=9) were adjusted for the menaquinol content. Blood samples are collected at various time points during the next 48 hours post dose.
# Blood samples were collected and transferred to tubes containing K2EDTA and immediately placed on ice for plasma preparations. Plasma was prepared by centrifugation at 3500 g for 10 min, aliquots are frozen at −80° C. until analysis. Quantification of analyte in plasma is determined by LC-MS-MS analysis. Plasma PK parameters are calculated using WinNonlin software.
# Approximately 5 mg of Menaquinone-7 was weighed and transferred to a graduated tube. Then 10 mL of sunflower oil was added and vortex mixed thoroughly until the test item is completely dissolved. The formulation was prepared in dark room under monochromatic light. The final strength of the formulation was 500 μg/mL. The formulation was prepared fresh before administration. […]
# [2] = Clinical observations in the single dose oral pharmacokinetics study; type: in vivo, Rat; settings: oral 1000 μg per kg body weight, till 48 h post dose
# [3] = Single dose oral pharmacokinetics study in male Sprague Dawley rats; type: in vivo, Rat; settings: for Plasma Concentration of Menaquinone-7, Mean (comparative table): G1: Menaquinone-7 oral
# caspase-3 = settings: at a concentration of 10 mcmol/L; cited from earlier work
# [4] = Menaquinone-7 oral 1000 μg/kg b.w., sunflower oil
# [5] = Menaquinone-7 oral 1000 μg/kg b.w., sunflower oil, N 6
# [6] = Menaquinone-7 oral 1000 μg/kg b.w., sunflower oil, time 0.00 h
# [7] = Menaquinone-7 oral 1000 μg/kg b.w., sunflower oil, time 0.50 h
# [8] = Menaquinone-7 oral 1000 μg/kg b.w., sunflower oil, time 1.00 h
# [9] = Menaquinone-7 oral 1000 μg/kg b.w., sunflower oil, time 2.00 h
# [10] = Menaquinone-7 oral 1000 μg/kg b.w., sunflower oil, time 4.00 h
# [11] = Menaquinone-7 oral 1000 μg/kg b.w., sunflower oil, time 6.00 h
# [12] = Menaquinone-7 oral 1000 μg/kg b.w., sunflower oil, time 8.00 h
# [13] = Menaquinone-7 oral 1000 μg/kg b.w., sunflower oil, time 24.00 h
# [14] = Menaquinone-7 oral 1000 μg/kg b.w., sunflower oil, time 48.00 h
molecule,measurement,setting,value
CC(C)=CCC/C(C)=C/CC/C(C)=C/CC/C(C)=C/CC/C(C)=C/CC/C(C)=C/CC/C(C)=C/CC1=C(C)C(=O)c2ccccc2C1=O [Menaquinone-7],"Plasma Concentration of Menaquinone-7, Mean (comparative table)",[1]; Time 0.00 h,0.00 ng/mL
same,"Plasma Concentration of Menaquinone-7, Mean (comparative table)",[1]; Time 0.50 h,3 ng/mL
same,"Plasma Concentration of Menaquinone-7, Mean (comparative table)",[1]; Time 1.00 h,11 ng/mL
same,"Plasma Concentration of Menaquinone-7, Mean (comparative table)",[1]; Time 2.00 h,15 ng/mL
same,"Plasma Concentration of Menaquinone-7, Mean (comparative table)",[1]; Time 4.00 h,14 ng/mL
same,"Plasma Concentration of Menaquinone-7, Mean (comparative table)",[1]; Time 6.00 h,10 ng/mL
same,"Plasma Concentration of Menaquinone-7, Mean (comparative table)",[1]; Time 8.00 h,6 ng/mL
same,"Plasma Concentration of Menaquinone-7, Mean (comparative table)",[1]; Time 48.00 h,2 ng/mL
same,"AUClast of Menaquinone-7 in plasma, individual animals",[1]; [4],352.16 ng·h/mL and 320.74 ng·h/mL and 166.19 ng·h/mL and 339.5 ng·h/mL and 211.72 ng·h/mL and 286.28 ng·h/mL
same,"Cmax of Menaquinone-7 in plasma, individual animals",[1]; [4],19.84 ng/mL and 13.25 ng/mL and 24.87 ng/mL and 23.02 ng/mL and 23.47 ng/mL and 14.4 ng/mL
same,"Half life of Menaquinone-7 in plasma, individual animals",[1]; [4],29.15 h and 30.91 h and 9.47 h and 21.96 h and 12.17 h and 35.05 h
same,"MRTlast of Menaquinone-7 in plasma, individual animals",[1]; [4],19.94 h and 20.91 h and 8.55 h and 14.68 h and 9.02 h and 20.28 h
same,"AUClast of Menaquinone-7 in plasma, Mean",[1]; [5],279.428 ng·h/mL and 279.43 ± 74.91 ng·h/mL
same,"Half life of Menaquinone-7 in plasma, Mean",[1]; [5],23.118 h and 23.12 ± 10.46 h
same,"MRTlast of Menaquinone-7 in plasma, Mean",[1]; [5],15.562 h and 15.56 ± 5.71 h
same,"Tmax of Menaquinone-7 in plasma, Mean",[1]; [5],5.000 h and 5.00 ± 2.10 h
same,"Plasma Concentration of Menaquinone-7, Mean",[1]; [6],0.00 ng/mL
same,"Plasma Concentration of Menaquinone-7, individual animals",[1]; [6],0.00 ng/mL
same,"Plasma Concentration of Menaquinone-7, Mean",[1]; [7],0.00 ng/mL
same,"Plasma Concentration of Menaquinone-7, individual animals",[1]; [7],0.00 ng/mL
same,"Plasma Concentration of Menaquinone-7, Mean",[1]; [8],3.23 ng/mL
same,"Plasma Concentration of Menaquinone-7, individual animals",[1]; [8],0.00 ng/mL (2×) and 3.56 ng/mL and 5.64 ng/mL and 2.91 ng/mL and 7.26 ng/mL
same,"Plasma Concentration of Menaquinone-7, Mean",[1]; [9],11.83 ng/mL
same,"Plasma Concentration of Menaquinone-7, individual animals",[1]; [9],3.21 ng/mL and 3.69 ng/mL and 9.07 ng/mL and 22.74 ng/mL and 17.91 ng/mL and 14.40 ng/mL
same,"Plasma Concentration of Menaquinone-7, Mean",[1]; [10],15.64 ng/mL
same,"Plasma Concentration of Menaquinone-7, individual animals",[1]; [10],11.45 ng/mL and 7.00 ng/mL and 24.87 ng/mL and 154.39* ng/mL and 23.47 ng/mL and 11.40 ng/mL
same,"Plasma Concentration of Menaquinone-7, Mean",[1]; [11],14.62 ng/mL
same,"Plasma Concentration of Menaquinone-7, individual animals",[1]; [11],19.84 ng/mL and 5.53 ng/mL and 13.11 ng/mL and 23.02 ng/mL and 15.09 ng/mL and 11.15 ng/mL
same,"Plasma Concentration of Menaquinone-7, Mean",[1]; [12],10.35 ng/mL
same,"Plasma Concentration of Menaquinone-7, individual animals",[1]; [12],11.92 ng/mL and 13.25 ng/mL and 8.18 ng/mL and 8.40 ng/mL and 10.89 ng/mL and 9.43 ng/mL
same,"Plasma Concentration of Menaquinone-7, individual animals","[1]; Menaquinone-7 oral 1000 μg/kg b.w., sunflower oil, time 12.00 h",7.05 ng/mL and 5.90 ng/mL and 4.26 ng/mL and 10.00 ng/mL and 5.48 ng/mL and 4.87 ng/mL
same,"Plasma Concentration of Menaquinone-7, Mean",[1]; [13],5.70 ng/mL
same,"Plasma Concentration of Menaquinone-7, individual animals",[1]; [13],8.16 ng/mL and 9.12 ng/mL and 3.00 ng/mL and 3.96 ng/mL and 4.84 ng/mL and 5.12 ng/mL
same,"Plasma Concentration of Menaquinone-7, Mean",[1]; [14],2.36 ng/mL
same,"Plasma Concentration of Menaquinone-7, individual animals",[1]; [14],3.81 ng/mL and 3.03 ng/mL and 0.00 ng/mL (2×) and 2.74 ng/mL and 4.56 ng/mL
same,plasma exposure of Menaquinone-7,"[1]; after Menaquinone-7 administration, 1000 μg/kg body weight oral, in ng·h/mL",279.43±74.91
same,Clinical Observations,[2],Rats showed no adverse clinical signs of toxicity
same,"Plasma Concentration of Menaquinone-7, Mean (comparative table)",[3]; Time 0.25 h,0.00 ng/mL
same,"Plasma Concentration of Menaquinone-7, Mean (comparative table)",[3]; Time 24.00 h,5 ng/mL
same,"Tmax of Menaquinone-7 in plasma, individual animals",[3]; [4],6 h and 8 h and 4 h and 2 h
same,"Cmax of Menaquinone-7 in plasma, Mean",[3]; [5],19 ng/mL and 19.808 ng/mL and 19.81 ± 4.93 ng/mL
vitamin K2 [VK2],decrease of the activity of caspase-3,caspase-3,2.5 fold

# Reference: patent US12514871B2, “Pegylated menaquinol compositions and methods of treatment” (Epizon Pharma, Inc., priority 2022, dated 2026)
